Results on one compound are retold here after PMC3634016, “The Calmodulin-Binding, Short Linear Motif, NSCaTE Is Conserved in L-Type Channel Ancestors of Vertebrate Cav1.2 and Cav1.3 Channels” (PLoS ONE, 2013).

pKd: −log10 of the molar value.

For the assay, the target named is T1, Ca^2+-CaM (wild type rat calmodulin) (Rattus norvegicus, UniProt P0DP29).
T1 construct: made in house
The assay is described as follows: Isothermal titration calorimetry, peptide into Ca2+-CaM. The class given is binding. The note with it: peptide titrated into Ca2+-CaM alone; 25 mM Tris-Cl pH 7.5, 75 mM NaCl, 0.5 mM CaCl2; 25°C; one-set-of-sites model; SEM printed separately in figure.

Protocol: All peptides were resuspended in mili-Q deionized water to 1 mM stocks and stored at −80°C in small aliquots.
All ITC recordings were performed on a Microcal ITC200 from Microcal (Northampton, MA) at 25°C. In all experiments the buffer used was 25 mM Tris-Cl pH 7.5, 75 mM NaCl and 0.5 mM CaCl2 and was identical between cell and syringe. […] Data analysis was performed using Origin ITC200 Origin70 module with pre-loaded fitting equations for one- and two-sites models.

For `CC[C@H](C)[C@H](NC(=O)[C@H](C)NC(=O)[C@H](C)NC(=O)[C@H](CCC(N)=O)NC(=O)[C@H](Cc1c[nH]c2ccccc12)NC(=O)[C@@H](N)CO)C(=O)N[C@@H](CC(=O)O)C(=O)N[C@@H](C)C(=O)N[C@@H](C)C(=O)N[C@@H](CCCNC(=N)N)C(=O)N[C@@H](CCC(N)=O)C(=O)N[C@@H](C)C(=O)N[C@@H](CCCCN)C(=O)N[C@@H](CC(C)C)C(=O)N[C@@H](CCSC)C(=O)NCC(=O)N[C@@H](CO)C(=O)O` [NSCaTECav1.2], the pKd was 6.08.
